Tested on: 6xHis mCherry F30-2xdBroccoli mRNA transcript (RNA, aptamer) GGGAGACCACAACGGUUUCCCUCUAGAAAUAAUUUUGUUUAACUUUAAGAAGGAGAUAUACCAUGUCUGGUUCUCAUCAUCAUCAUCAUCAUGGUAGCAGCGGCGAAAACCUGUAUUUUCAGUCCAUGGUGAGCAAGGGCGAGGAGGAUAACAUGGCCAUCAUCAAGGAGUUCAUGCGCUUCAAGGUGCACAUGGAGGGCUCCGUGAACGGCCACGAGUUCGAGAUCGAGGGCGAGGGCGAGGGCCGCCCCUACGAGGGCACCCAGACCGCCAAGCUGAAGGUGACCAAGGGUGGCCCCCUGCCCUUCGCCUGGGACAUCCUGUCCCCUCAGUUCAUGUACGGCUCCAAGGCCUACGUGAAGCACCCCGCCGACAUCCCCGACUACUUGAAGCUGUCCUUCCCCGAGGGCUUCAAGUGGGAGCGCGUGAUGAACUUCGAGGACGGCGGCGUGGUGACCGUGACCCAGGACUCCUCCCUGCAGGACGGCGAGUUCAUCUACAAGGUGAAGCUGCGCGGCACCAACUUCCCCUCCGACGGCCCCGUAAUGCAGAAGAAGACCAUGGGCUGGGAGGCCUCCUCCGAGCGGAUGUACCCCGAGGACGGCGCCCUGAAGGGCGAGAUCAAGCAGAGGCUGAAGCUGAAGGACGGCGGCCACUACGACGCUGAGGUCAAGACCACCUACAAGGCCAAGAAGCCCGUGCAGCUGCCCGGCGCCUACAACGUCAACAUCAAGUUGGACAUCACCUCCCACAACGAGGACUACACCAUCGUGGAACAGUACGAACGCGCCGAGGGCCGCCACUCCACCGGCGGCAUGGACGAGCUGUACAAGGGCAGCUAAAGGGUGAUCUUGCCAUGUGUAUGUGGGAGACGGUCGGGUCCAUCUGAGACGGUCGGGUCCAGAUAUUCGUAUCUGUCGAGUAGAGUGUGGGCUCAGAUGUCGAGUAGAGUGUGGGCUCCCACAUACUCUGAUGAUCCAGACGGUCGGGUCCAUCUGAGACGGUCGGGUCCAGAUAUUCGUAUCUGUCGAGUAGAGUGUGGGCUCAGAUGUCGAGUAGAGUGUGGGCUGGAUCAUUCAUGGCAACGGCUGCUAACAAAGCCCGAAAGGAAGCUGAGUUGGCUGCUGCCACCGCUGAGCAAUAACUAGCAUAACCCCUUGGGGCCUCUAAACGGGUCUUGAGGGGUUUUUUGCUGAAAGGAGGAACU
Test: fluorescence activation (in-gel staining; plate reader)
Conditions: PURExpress reaction with 10 μM DFHBI, 80.4 mM sucrose, 30 °C; also in-gel DFHBI staining; qualitative

- binding: yes
SMILES: CC1=N/C(=C\c2cc(F)c(O)c(F)c2)C(=O)N1C
